What was measured:
Experiment in all cases: relative viability (nuclei count vs DMSO), 5 days (fraction); higher = more cells survive
BX 795 + Palbociclib = compound: O=C(NCCCNc1nc(Nc2cccc(NC(=O)N3CCCC3)c2)ncc1I)c1cccs1 [BX 795] + CC(=O)c1c(C)c2cnc(Nc3ccc(N4CCNCC4)cn3)nc2n(C2CCCC2)c1=O [Palbociclib] (partner 0.5 µM)
How it was run: (§1)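 A single step with final 0.05% Triton X-100, 1% formaldehyde and 1 ug/ml Hoechst fixed the cells and stained nuclei 5 days after treatment. Lung cancer cell lines in 1536-well plates had been treated by pin tool the day after seeding with one drug alone or a fixed anchor-drug dose plus five library-drug doses (not always all listed) in √10 steps, and nuclei were counted on 4× images. Relative viability is the ratio of nuclei in treated wells to nuclei in vehicle wells, taken as the median of duplicate plates.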

BX 795 + Linsitinib = compound: O=C(NCCCNc1nc(Nc2cccc(NC(=O)N3CCCC3)c2)ncc1I)c1cccs1 [BX 795] + C[C@]1(O)C[C@@H](c2nc(-c3ccc4ccc(-c5ccccc5)nc4c3)c3c(N)nccn32)C1 [Linsitinib] (partner 1 µM)
How it was run: as §1

BX 795 + Tozasertib = compound: O=C(NCCCNc1nc(Nc2cccc(NC(=O)N3CCCC3)c2)ncc1I)c1cccs1 [BX 795] + Cc1cc(Nc2cc(N3CCN(C)CC3)nc(Sc3ccc(NC(=O)C4CC4)cc3)n2)n[nH]1 [Tozasertib] (partner 0.1 µM)
How it was run: as §1

BX 795 + Dasatinib = compound: O=C(NCCCNc1nc(Nc2cccc(NC(=O)N3CCCC3)c2)ncc1I)c1cccs1 [BX 795] + Cc1nc(Nc2ncc(C(=O)Nc3c(C)cccc3Cl)s2)cc(N2CCN(CCO)CC2)n1 [Dasatinib] (partner 0.075 µM)
How it was run: as §1

BX 795 + Decitabine = compound: O=C(NCCCNc1nc(Nc2cccc(NC(=O)N3CCCC3)c2)ncc1I)c1cccs1 [BX 795] + Nc1ncn([C@H]2C[C@H](O)[C@@H](CO)O2)c(=O)n1 [Decitabine] (partner 2 µM)
How it was run: as §1

Cell Line | relative viability (BX 795 + Palbociclib; first compound 0.04 µM) | relative viability (BX 795 + Palbociclib; first compound 0.1265 µM) | relative viability (BX 795 + Palbociclib; first compound 0.4 µM) | relative viability (BX 795 + Palbociclib; first compound 1.265 µM) | relative viability (BX 795 + Linsitinib; first compound 0.04 µM) | relative viability (BX 795 + Linsitinib; first compound 0.1265 µM) | relative viability (BX 795 + Linsitinib; first compound 0.4 µM) | relative viability (BX 795 + Linsitinib; first compound 1.265 µM) | relative viability (BX 795 + Tozasertib; first compound 0.04 µM) | relative viability (BX 795 + Tozasertib; first compound 0.1265 µM) | relative viability (BX 795 + Tozasertib; first compound 0.4 µM) | relative viability (BX 795 + Tozasertib; first compound 1.265 µM) | relative viability (BX 795 + Dasatinib; first compound 0.04 µM) | relative viability (BX 795 + Dasatinib; first compound 0.1265 µM) | relative viability (BX 795 + Dasatinib; first compound 0.4 µM) | relative viability (BX 795 + Dasatinib; first compound 1.265 µM) | relative viability (BX 795 + Decitabine; first compound 0.04 µM) | relative viability (BX 795 + Decitabine; first compound 0.1265 µM) | relative viability (BX 795 + Decitabine; first compound 0.4 µM) | relative viability (BX 795 + Decitabine; first compound 1.265 µM)
NCI-H23 | 0.457 | 0.43 | 0.567 | 0.464 | 0.584 | 0.655 | 0.441 | 0.387 | 0.327 | 0.639 | 0.314 | 0.234 | 0.871 | 0.8 | 0.507 | 0.884 | 0.298 | 0.234 | 0.346 | 0.315
NCI-H322M | 0.486 | 0.468 | 0.571 | 0.587 | 0.984 | 1.01 | 1.02 | 0.967 | 0.456 | 0.488 | 0.372 | 0.47 | 0.256 | 0.254 | 0.295 | 0.28 | 0.87 | 0.887 | 0.801 | 0.741
NCI-H358 | 0.132 | 0.134 | 0.131 | 0.107 | 0.679 | 0.705 | 0.601 | 0.228 | 0.1 | 0.107 | 0.0928 | 0.098 | 0.155 | 0.165 | 0.154 | 0.154 | 0.351 | 0.236 | 0.339 | 0.183
NCI-H441 | 0.22 | 0.204 | 0.243 | 0.184 | 0.667 | 0.528 | 0.854 | 0.326 | 0.857 | 0.567 | 0.834 | 0.376 | 0.695 | 0.7 | 0.587 | 0.459 | 0.281 | 0.262 | 0.316 | 0.245
NCI-H460 | 0.163 | 0.156 | 0.0784 | 0.149 | 0.708 | 1.01 | 0.605 | 0.281 | 0.497 | 0.44 | 0.0824 | 0.184 | 0.491 | 0.474 | 0.385 | 0.385 | 0.497 | 0.584 | 0.446 | 0.403
NCI-H520 | 0.189 | 0.263 | 0.187 | 0.177 | 0.746 | 1.06 | 0.859 | 0.359 | 0.44 | 0.447 | 0.421 | 0.401 | 0.199 | 0.194 | 0.376 | 0.162 | 0.55 | 0.545 | 0.622 | 0.425
NCI-H647 | 0.425 | 0.365 | 0.384 | 0.3 | 1.25 | 1.16 | 1.28 | 0.601 | 0.256 | 0.352 | 0.218 | 0.233 | 0.19 | 0.196 | 0.151 | 0.0897 | 0.383 | 0.447 | 0.513 | 0.37
NCI-H650 | 0.346 | 0.343 | 0.319 | 0.312 | 0.752 | 0.739 | 1.03 | 0.549 | 0.864 | 0.769 | 0.583 | 0.488 | 0.463 | 0.41 | 0.42 | 0.337 | 0.458 | 0.299 | 0.458 | 0.357
NCI-H661 | 0.463 | 0.429 | 0.429 | 0.444 | 0.615 | 0.641 | 0.34 | 0.433 | 0.374 | 0.369 | 0.378 | 0.412 | 0.9 | 0.938 | 0.501 | 0.515 | 0.683 | 0.594 | 0.589 | 0.533
NCI-H727 | 0.634 | 0.61 | 0.67 | 0.696 | 0.294 | 0.247 | 0.277 | 0.24 | 0.683 | 0.706 | 0.512 | 0.546 | 0.376 | 0.318 | 0.386 | 0.58 | 1.23 | 0.943 | 0.845 | 0.905
NCI-H838 | 0.231 | 0.234 | 0.197 | 0.172 | 0.936 | 0.986 | 0.881 | 0.331 | 0.236 | 0.303 | 0.272 | 0.22 | 0.29 | 0.367 | 0.261 | 0.231 | 0.568 | 0.487 | 0.512 | 0.322
NCI-H1355 | 0.418 | 0.346 | 0.388 | 0.393 | 0.768 | 0.869 | 0.811 | 0.65 | 0.589 | 0.442 | 0.486 | 0.385 | 0.763 | 0.659 | 0.684 | 0.664 | 0.355 | 0.278 | 0.449 | 0.337
NCI-H1395 | 0.627 | 0.612 | 0.426 | 0.498 | 1.1 | 0.957 | 0.611 | 0.786 | 0.698 | 0.721 | 0.601 | 0.72 | 0.368 | 0.435 | 0.397 | 0.32 | 0.693 | 0.774 | 0.48 | 0.597
NCI-H1437 | 0.336 | 0.34 | 0.344 | 0.358 | 1.05 | 1.07 | 0.992 | 0.769 | 0.378 | 0.395 | 0.429 | 0.413 | 0.308 | 0.467 | 0.396 | 0.379 | 0.616 | 0.586 | 0.846 | 0.618
NCI-H1651 | 0.566 | 0.534 | 0.538 | 0.541 | 0.999 | 1.1 | 1.02 | 0.831 | 0.711 | 0.709 | 0.59 | 0.641 | 0.38 | 0.426 | 0.43 | 0.347 | 0.801 | 0.624 | 0.6 | 0.645

— the supplement of paper PMC10307832
